The supplement of paper PMC4862054

The compounds below were run on BT-474 (assay: normalised response (% of control), CellTox Green; higher = less cell death (100 = DMSO, 0 = benzethonium chloride kill control)). Settings: incubation time: 72 h.
Procedure, shortened: (§1)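 Normalised signals at single concentrations make up the values. They come from breast cancer cell lines seeded (20 µl suspension) into 384-well plates with compound at 5 concentrations in 10-fold steps over a compound-specific 10,000-fold range, incubated 72 h, and read for CellTox Green fluorescence then CellTiter-Glo luminescence. Each plate was normalised to 0.1 % DMSO (100) and a positive kill control (0).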

SMILES | normalised response
CC(C)(C)Cn1c(N)nc2ccc(-c3[nH]c(C(C)(C)C)nc3-c3ccc(F)cc3)nc21 (1000 nM) | 101%
Cn1cc(C[C@@H](N)C(=O)O)c2ccccc21 [1-methyl-D-tryptophan] (500 nM) | 99.3%
CC[C@H](CC#N)OC(=O)N[C@@H](C)c1cccc(NC(=O)Nc2ccc(-c3cnco3)c(OC)c2)c1 [AVN944] (1000 nM) | 86.3%
CCc1cnn2c(NCc3ccc[n+]([O-])c3)cc(N3CCCC[C@H]3CCO)nc12 [Dinaciclib] (100 nM) | 71%
COc1cc(Nc2ncc(F)c(Nc3ccc4c(n3)N(COP(=O)(O)O)C(=O)C(C)(C)O4)n2)cc(OC)c1OC [Fostamatinib] (250 nM) | 97.8%
CC(C)NC[C@@H](C(=O)N1CCN(c2ncnc3c2[C@H](C)C[C@H]3O)CC1)c1ccc(Cl)cc1 [GDC-0068] (1000 nM) | 74.3%
CCCc1cc(C)[nH]c(=O)c1CNC(=O)c1cc(-c2ccnc(N3CCN(C)CC3)c2)cc2c1cnn2C(C)C [GSK343] (1000 nM) | 97.9%
COc1cc2c(cc1-c1c(C)noc1C)ncc1[nH]c(=O)n([C@H](C)c3ccccn3)c12 [I-BET151] (1000 nM) | 97.2%
CN1CCc2c(c3ccccc3n2Cc2ccc(C(=O)NO)cc2)C1 [Tubastatin A] (1000 nM) | 99.2%

Each compound was assayed on BT-549 in the same assay as above. Settings: incubation time: 72 h.
Procedure, shortened: as §1

SMILES | normalised response
CC(C)(C)Cn1c(N)nc2ccc(-c3[nH]c(C(C)(C)C)nc3-c3ccc(F)cc3)nc21 (1000 nM) | 111%
CC[C@H](CC#N)OC(=O)N[C@@H](C)c1cccc(NC(=O)Nc2ccc(-c3cnco3)c(OC)c2)c1 [AVN944] (1000 nM) | 127%
CCc1cnn2c(NCc3ccc[n+]([O-])c3)cc(N3CCCC[C@H]3CCO)nc12 [Dinaciclib] (100 nM) | 53.8%
COc1cc(Nc2ncc(F)c(Nc3ccc4c(n3)N(COP(=O)(O)O)C(=O)C(C)(C)O4)n2)cc(OC)c1OC [Fostamatinib] (250 nM) | 82.7%
CC(C)NC[C@@H](C(=O)N1CCN(c2ncnc3c2[C@H](C)C[C@H]3O)CC1)c1ccc(Cl)cc1 [GDC-0068] (1000 nM) | 90.5%
CCCc1cc(C)[nH]c(=O)c1CNC(=O)c1cc(-c2ccnc(N3CCN(C)CC3)c2)cc2c1cnn2C(C)C [GSK343] (1000 nM) | 107%
COc1cc2c(cc1-c1c(C)noc1C)ncc1[nH]c(=O)n([C@H](C)c3ccccn3)c12 [I-BET151] (1000 nM) | 93.6%
CN1CCc2c(c3ccccc3n2Cc2ccc(C(=O)NO)cc2)C1 [Tubastatin A] (1000 nM) | 99.6%

What follows are compounds tested on CAL-120 in the same assay as above. Settings: incubation time: 72 h.
Procedure, shortened: as §1

SMILES | normalised response
CC(C)(C)Cn1c(N)nc2ccc(-c3[nH]c(C(C)(C)C)nc3-c3ccc(F)cc3)nc21 (1000 nM) | 81.1%
Cn1cc(C[C@@H](N)C(=O)O)c2ccccc21 [1-methyl-D-tryptophan] (500 nM) | 99.3%
CC[C@H](CC#N)OC(=O)N[C@@H](C)c1cccc(NC(=O)Nc2ccc(-c3cnco3)c(OC)c2)c1 [AVN944] (1000 nM) | 99.9%
CCc1cnn2c(NCc3ccc[n+]([O-])c3)cc(N3CCCC[C@H]3CCO)nc12 [Dinaciclib] (100 nM) | 87.7%
COc1cc(Nc2ncc(F)c(Nc3ccc4c(n3)N(COP(=O)(O)O)C(=O)C(C)(C)O4)n2)cc(OC)c1OC [Fostamatinib] (250 nM) | 101%
CC(C)NC[C@@H](C(=O)N1CCN(c2ncnc3c2[C@H](C)C[C@H]3O)CC1)c1ccc(Cl)cc1 [GDC-0068] (1000 nM) | 99.3%
CCCc1cc(C)[nH]c(=O)c1CNC(=O)c1cc(-c2ccnc(N3CCN(C)CC3)c2)cc2c1cnn2C(C)C [GSK343] (1000 nM) | 96.1%
COc1cc2c(cc1-c1c(C)noc1C)ncc1[nH]c(=O)n([C@H](C)c3ccccn3)c12 [I-BET151] (1000 nM) | 91.8%
CN1CCc2c(c3ccccc3n2Cc2ccc(C(=O)NO)cc2)C1 [Tubastatin A] (1000 nM) | 102%

What follows are compounds tested on CAL-148 in the same assay as above. Settings: incubation time: 72 h.
Procedure, shortened: as §1

SMILES | normalised response
CC(C)(C)Cn1c(N)nc2ccc(-c3[nH]c(C(C)(C)C)nc3-c3ccc(F)cc3)nc21 (1000 nM) | 99.9%
Cn1cc(C[C@@H](N)C(=O)O)c2ccccc21 [1-methyl-D-tryptophan] (500 nM) | 91.4%
CC[C@H](CC#N)OC(=O)N[C@@H](C)c1cccc(NC(=O)Nc2ccc(-c3cnco3)c(OC)c2)c1 [AVN944] (1000 nM) | -21.7%
CCc1cnn2c(NCc3ccc[n+]([O-])c3)cc(N3CCCC[C@H]3CCO)nc12 [Dinaciclib] (100 nM) | 50.9%
COc1cc(Nc2ncc(F)c(Nc3ccc4c(n3)N(COP(=O)(O)O)C(=O)C(C)(C)O4)n2)cc(OC)c1OC [Fostamatinib] (250 nM) | 93.1%
CC(C)NC[C@@H](C(=O)N1CCN(c2ncnc3c2[C@H](C)C[C@H]3O)CC1)c1ccc(Cl)cc1 [GDC-0068] (1000 nM) | 34.3%
CCCc1cc(C)[nH]c(=O)c1CNC(=O)c1cc(-c2ccnc(N3CCN(C)CC3)c2)cc2c1cnn2C(C)C [GSK343] (1000 nM) | 98.2%
CN1CCc2c(c3ccccc3n2Cc2ccc(C(=O)NO)cc2)C1 [Tubastatin A] (1000 nM) | 104%

These compounds were tested on CAL-51 in the same assay as above. Settings: incubation time: 72 h.
Procedure, shortened: as §1

SMILES | normalised response
CC(C)(C)Cn1c(N)nc2ccc(-c3[nH]c(C(C)(C)C)nc3-c3ccc(F)cc3)nc21 (1000 nM) | 94%
Cn1cc(C[C@@H](N)C(=O)O)c2ccccc21 [1-methyl-D-tryptophan] (500 nM) | 95.5%
CC[C@H](CC#N)OC(=O)N[C@@H](C)c1cccc(NC(=O)Nc2ccc(-c3cnco3)c(OC)c2)c1 [AVN944] (1000 nM) | 63.5%
CCc1cnn2c(NCc3ccc[n+]([O-])c3)cc(N3CCCC[C@H]3CCO)nc12 [Dinaciclib] (100 nM) | 50.7%
COc1cc(Nc2ncc(F)c(Nc3ccc4c(n3)N(COP(=O)(O)O)C(=O)C(C)(C)O4)n2)cc(OC)c1OC [Fostamatinib] (250 nM) | 92.2%
CC(C)NC[C@@H](C(=O)N1CCN(c2ncnc3c2[C@H](C)C[C@H]3O)CC1)c1ccc(Cl)cc1 [GDC-0068] (1000 nM) | 89.6%
CCCc1cc(C)[nH]c(=O)c1CNC(=O)c1cc(-c2ccnc(N3CCN(C)CC3)c2)cc2c1cnn2C(C)C [GSK343] (1000 nM) | 82.5%
COc1cc2c(cc1-c1c(C)noc1C)ncc1[nH]c(=O)n([C@H](C)c3ccccn3)c12 [I-BET151] (1000 nM) | 89.2%
CN1CCc2c(c3ccccc3n2Cc2ccc(C(=O)NO)cc2)C1 [Tubastatin A] (1000 nM) | 91.3%

These compounds were tested on CAL-85-1 in the same assay as above. Settings: incubation time: 72 h.
Procedure, shortened: as §1

SMILES | normalised response
CC(C)(C)Cn1c(N)nc2ccc(-c3[nH]c(C(C)(C)C)nc3-c3ccc(F)cc3)nc21 (1000 nM) | 90.7%
Cn1cc(C[C@@H](N)C(=O)O)c2ccccc21 [1-methyl-D-tryptophan] (500 nM) | 98.8%
CC[C@H](CC#N)OC(=O)N[C@@H](C)c1cccc(NC(=O)Nc2ccc(-c3cnco3)c(OC)c2)c1 [AVN944] (1000 nM) | 97%
CCc1cnn2c(NCc3ccc[n+]([O-])c3)cc(N3CCCC[C@H]3CCO)nc12 [Dinaciclib] (100 nM) | 21.7%
COc1cc(Nc2ncc(F)c(Nc3ccc4c(n3)N(COP(=O)(O)O)C(=O)C(C)(C)O4)n2)cc(OC)c1OC [Fostamatinib] (250 nM) | 106%
CC(C)NC[C@@H](C(=O)N1CCN(c2ncnc3c2[C@H](C)C[C@H]3O)CC1)c1ccc(Cl)cc1 [GDC-0068] (1000 nM) | 113%
CCCc1cc(C)[nH]c(=O)c1CNC(=O)c1cc(-c2ccnc(N3CCN(C)CC3)c2)cc2c1cnn2C(C)C [GSK343] (1000 nM) | 98%
COc1cc2c(cc1-c1c(C)noc1C)ncc1[nH]c(=O)n([C@H](C)c3ccccn3)c12 [I-BET151] (1000 nM) | 83.8%
CN1CCc2c(c3ccccc3n2Cc2ccc(C(=O)NO)cc2)C1 [Tubastatin A] (1000 nM) | 111%

Each compound was assayed on DU-4475 in the same assay as above. Settings: incubation time: 72 h.
Procedure, shortened: as §1

SMILES | normalised response
CC(C)(C)Cn1c(N)nc2ccc(-c3[nH]c(C(C)(C)C)nc3-c3ccc(F)cc3)nc21 (1000 nM) | 105%
Cn1cc(C[C@@H](N)C(=O)O)c2ccccc21 [1-methyl-D-tryptophan] (500 nM) | 101%
CC[C@H](CC#N)OC(=O)N[C@@H](C)c1cccc(NC(=O)Nc2ccc(-c3cnco3)c(OC)c2)c1 [AVN944] (1000 nM) | 88.2%
CCc1cnn2c(NCc3ccc[n+]([O-])c3)cc(N3CCCC[C@H]3CCO)nc12 [Dinaciclib] (100 nM) | 96.3%
COc1cc(Nc2ncc(F)c(Nc3ccc4c(n3)N(COP(=O)(O)O)C(=O)C(C)(C)O4)n2)cc(OC)c1OC [Fostamatinib] (250 nM) | 100%
CC(C)NC[C@@H](C(=O)N1CCN(c2ncnc3c2[C@H](C)C[C@H]3O)CC1)c1ccc(Cl)cc1 [GDC-0068] (1000 nM) | 102%
CCCc1cc(C)[nH]c(=O)c1CNC(=O)c1cc(-c2ccnc(N3CCN(C)CC3)c2)cc2c1cnn2C(C)C [GSK343] (1000 nM) | 94.6%
COc1cc2c(cc1-c1c(C)noc1C)ncc1[nH]c(=O)n([C@H](C)c3ccccn3)c12 [I-BET151] (1000 nM) | 94.7%
CN1CCc2c(c3ccccc3n2Cc2ccc(C(=O)NO)cc2)C1 [Tubastatin A] (1000 nM) | 105%

Each compound was assayed on HCC1143 in the same assay as above. Settings: incubation time: 72 h.
Procedure, shortened: as §1

SMILES | normalised response
Cn1cc(C[C@@H](N)C(=O)O)c2ccccc21 [1-methyl-D-tryptophan] (500 nM) | 94.1%
CC[C@H](CC#N)OC(=O)N[C@@H](C)c1cccc(NC(=O)Nc2ccc(-c3cnco3)c(OC)c2)c1 [AVN944] (1000 nM) | 56.6%
CCc1cnn2c(NCc3ccc[n+]([O-])c3)cc(N3CCCC[C@H]3CCO)nc12 [Dinaciclib] (100 nM) | 88.7%
COc1cc(Nc2ncc(F)c(Nc3ccc4c(n3)N(COP(=O)(O)O)C(=O)C(C)(C)O4)n2)cc(OC)c1OC [Fostamatinib] (250 nM) | 76.3%
CC(C)NC[C@@H](C(=O)N1CCN(c2ncnc3c2[C@H](C)C[C@H]3O)CC1)c1ccc(Cl)cc1 [GDC-0068] (1000 nM) | 121%
CCCc1cc(C)[nH]c(=O)c1CNC(=O)c1cc(-c2ccnc(N3CCN(C)CC3)c2)cc2c1cnn2C(C)C [GSK343] (1000 nM) | 98.9%
COc1cc2c(cc1-c1c(C)noc1C)ncc1[nH]c(=O)n([C@H](C)c3ccccn3)c12 [I-BET151] (1000 nM) | 105%

These compounds were tested on HCC1599 in the same assay as above. Settings: incubation time: 72 h.
Procedure, shortened: as §1

SMILES | normalised response
CC(C)(C)Cn1c(N)nc2ccc(-c3[nH]c(C(C)(C)C)nc3-c3ccc(F)cc3)nc21 (1000 nM) | 84.3%
Cn1cc(C[C@@H](N)C(=O)O)c2ccccc21 [1-methyl-D-tryptophan] (500 nM) | 85.2%
CC[C@H](CC#N)OC(=O)N[C@@H](C)c1cccc(NC(=O)Nc2ccc(-c3cnco3)c(OC)c2)c1 [AVN944] (1000 nM) | 85%
CCc1cnn2c(NCc3ccc[n+]([O-])c3)cc(N3CCCC[C@H]3CCO)nc12 [Dinaciclib] (100 nM) | 71.3%
COc1cc(Nc2ncc(F)c(Nc3ccc4c(n3)N(COP(=O)(O)O)C(=O)C(C)(C)O4)n2)cc(OC)c1OC [Fostamatinib] (250 nM) | 92.7%
CC(C)NC[C@@H](C(=O)N1CCN(c2ncnc3c2[C@H](C)C[C@H]3O)CC1)c1ccc(Cl)cc1 [GDC-0068] (1000 nM) | 93.2%
CCCc1cc(C)[nH]c(=O)c1CNC(=O)c1cc(-c2ccnc(N3CCN(C)CC3)c2)cc2c1cnn2C(C)C [GSK343] (1000 nM) | 91.5%
COc1cc2c(cc1-c1c(C)noc1C)ncc1[nH]c(=O)n([C@H](C)c3ccccn3)c12 [I-BET151] (1000 nM) | 97.9%
CN1CCc2c(c3ccccc3n2Cc2ccc(C(=O)NO)cc2)C1 [Tubastatin A] (1000 nM) | 93.7%

What follows are compounds tested on HCC1937 in the same assay as above. Settings: incubation time: 72 h.
Procedure, shortened: as §1

SMILES | normalised response
CC[C@H](CC#N)OC(=O)N[C@@H](C)c1cccc(NC(=O)Nc2ccc(-c3cnco3)c(OC)c2)c1 [AVN944] (1000 nM) | 76.8%
CCc1cnn2c(NCc3ccc[n+]([O-])c3)cc(N3CCCC[C@H]3CCO)nc12 [Dinaciclib] (100 nM) | 87.2%
COc1cc(Nc2ncc(F)c(Nc3ccc4c(n3)N(COP(=O)(O)O)C(=O)C(C)(C)O4)n2)cc(OC)c1OC [Fostamatinib] (250 nM) | 125%
CC(C)NC[C@@H](C(=O)N1CCN(c2ncnc3c2[C@H](C)C[C@H]3O)CC1)c1ccc(Cl)cc1 [GDC-0068] (1000 nM) | 115%
